# Literature values, collected in PMC10017685 (Nature Communications, 2023).
# Test system: human erythrocytes
# Parameters: method as in DBAASP
# Details: toxicity class label 1 or 0, meaning of the labels not given; DBAASP HC50 data, human erythrocytes; ref DBAASP; cited from earlier work
sequence,measurement,value
AAKKGCWTVSIPPKPCF [DBAASP_12530],Class (dedicated toxicity dataset used for toxicity classifier evaluation),0
AFALIAGALYRIFHRR [DBAASP_16955],Class (dedicated toxicity dataset used for toxicity classifier evaluation),0
AIGSILGALAKGLPTLISWIKNR [DBAASP_2156],Class (dedicated toxicity dataset used for toxicity classifier evaluation),1
AILTTLANWARKFL [DBAASP_3561],Class (dedicated toxicity dataset used for toxicity classifier evaluation),0
AKRHHGYKRKFH [DBAASP_732],Class (dedicated toxicity dataset used for toxicity classifier evaluation),0
ALFKTMLKKLGTMAL [DBAASP_10098],Class (dedicated toxicity dataset used for toxicity classifier evaluation),0
ALHKTMLKKLGTMAL [DBAASP_10090],Class (dedicated toxicity dataset used for toxicity classifier evaluation),0
ALLKTMLKKLGTMAL [DBAASP_10104],Class (dedicated toxicity dataset used for toxicity classifier evaluation),0
ALWKSLLKNVGKA [DBAASP_11806],Class (dedicated toxicity dataset used for toxicity classifier evaluation),0
ALWKTLLKKVLKAAA [DBAASP_7356],Class (dedicated toxicity dataset used for toxicity classifier evaluation),1
ALWKTMLKKLGT [DBAASP_10094],Class (dedicated toxicity dataset used for toxicity classifier evaluation),0
ALWKTMLKKLGTM [DBAASP_10093],Class (dedicated toxicity dataset used for toxicity classifier evaluation),0
ALWKTMLKKLGTMA [DBAASP_10092],Class (dedicated toxicity dataset used for toxicity classifier evaluation),0
ALWKTMLKKLGTMAL [DBAASP_10095],Class (dedicated toxicity dataset used for toxicity classifier evaluation),0
ALWKTMLKKLGTMALHAGK [DBAASP_10088],Class (dedicated toxicity dataset used for toxicity classifier evaluation),0
ALYKTMLKKLGTMAL [DBAASP_10103],Class (dedicated toxicity dataset used for toxicity classifier evaluation),0
AVDLAKIANKVLSSLF [DBAASP_2207],Class (dedicated toxicity dataset used for toxicity classifier evaluation),0
CAKAKAKAGSGAKAKAKAC [DBAASP_351],Class (dedicated toxicity dataset used for toxicity classifier evaluation),0
CFKFKFKFGSGFKFKFKFC [DBAASP_352],Class (dedicated toxicity dataset used for toxicity classifier evaluation),0
CVKVKVKVGSGVKVKVKVC [DBAASP_347],Class (dedicated toxicity dataset used for toxicity classifier evaluation),0
CVKVQVKVGSGVKVQVKVC [DBAASP_350],Class (dedicated toxicity dataset used for toxicity classifier evaluation),0
CVKVRVKVGSGVKVRVKVC [DBAASP_349],Class (dedicated toxicity dataset used for toxicity classifier evaluation),0
CVKVSVKVGSGVKVSVKVC [DBAASP_348],Class (dedicated toxicity dataset used for toxicity classifier evaluation),0
CWKWKWKWGSGWKWKWKWC [DBAASP_353],Class (dedicated toxicity dataset used for toxicity classifier evaluation),0
DIFGAIWPLALGALKNLIK [DBAASP_9407],Class (dedicated toxicity dataset used for toxicity classifier evaluation),1
DSHAKRHHGYKRKFHEKHHSHRGY [DBAASP_15],Class (dedicated toxicity dataset used for toxicity classifier evaluation),0
FFFFKKKKK [DBAASP_15834],Class (dedicated toxicity dataset used for toxicity classifier evaluation),1
FFFLSRIF [DBAASP_3232],Class (dedicated toxicity dataset used for toxicity classifier evaluation),0
FFGKVLKLIRKIF [DBAASP_2255],Class (dedicated toxicity dataset used for toxicity classifier evaluation),1
FFGSVLKLIPKIL [DBAASP_5799],Class (dedicated toxicity dataset used for toxicity classifier evaluation),0
FFGWLIKGAIHAGKAIHGLIHRRRH [DBAASP_3173],Class (dedicated toxicity dataset used for toxicity classifier evaluation),1
FFHHAFRGIVHVGKTIHRLVTG [DBAASP_9003],Class (dedicated toxicity dataset used for toxicity classifier evaluation),0
FFHHFARGIVHVGKTIHRLVTG [DBAASP_9009],Class (dedicated toxicity dataset used for toxicity classifier evaluation),0
FFHHIFRGIVHIGKTIHRLVTG [DBAASP_9010],Class (dedicated toxicity dataset used for toxicity classifier evaluation),1
FFHHIFRGIVHVGKKIHRLVKG [DBAASP_9984],Class (dedicated toxicity dataset used for toxicity classifier evaluation),0
FFHHIFRGIVHVGKKIHRLVTG [DBAASP_9986],Class (dedicated toxicity dataset used for toxicity classifier evaluation),0
FFHHIFRGIVHVGKTIHRLVTG [DBAASP_4867],Class (dedicated toxicity dataset used for toxicity classifier evaluation),1
FFHHIFRGIVHVGKTVHRLVTG [DBAASP_9008],Class (dedicated toxicity dataset used for toxicity classifier evaluation),0
FFHHIFRGVVHVGKTIHRLVTG [DBAASP_9007],Class (dedicated toxicity dataset used for toxicity classifier evaluation),0
FFHHVFRGIVHVGKTIHRLVTG [DBAASP_9006],Class (dedicated toxicity dataset used for toxicity classifier evaluation),0
FFLLSLIPSAISAIKKI [DBAASP_8438],Class (dedicated toxicity dataset used for toxicity classifier evaluation),0
FFPGIIKVAGAILPTAICAITKRC [DBAASP_10252],Class (dedicated toxicity dataset used for toxicity classifier evaluation),0
FFPIIAGMAAKLIPSLFCKITKKC [DBAASP_4209],Class (dedicated toxicity dataset used for toxicity classifier evaluation),1
FFPIIAGMAAKVICAITKKC [DBAASP_4211],Class (dedicated toxicity dataset used for toxicity classifier evaluation),1
FFPIVGKLLSGLF [DBAASP_1882],Class (dedicated toxicity dataset used for toxicity classifier evaluation),0
FFPLIFGALSSILPKIL [DBAASP_18209],Class (dedicated toxicity dataset used for toxicity classifier evaluation),1
FFRLLFHGVHHGGGYLNAA [DBAASP_1428],Class (dedicated toxicity dataset used for toxicity classifier evaluation),0
FFRLLFHGVHHVGKIKPRA [DBAASP_1429],Class (dedicated toxicity dataset used for toxicity classifier evaluation),0
FIGAIARLLSKIF [DBAASP_1465],Class (dedicated toxicity dataset used for toxicity classifier evaluation),1
FIGALLRPALKLLAGK [DBAASP_5719],Class (dedicated toxicity dataset used for toxicity classifier evaluation),0
FIGMIPGLIGGLISAIK [DBAASP_9867],Class (dedicated toxicity dataset used for toxicity classifier evaluation),1
FIHHAAGGLFSAGKAIHRLIRRRRR [DBAASP_17363],Class (dedicated toxicity dataset used for toxicity classifier evaluation),0
FIHHIIGGLFSAGKAIHRLIRRRRR [DBAASP_5623],Class (dedicated toxicity dataset used for toxicity classifier evaluation),1
FIHHIIGGLFSVGKHIHSLIHGH [DBAASP_12673],Class (dedicated toxicity dataset used for toxicity classifier evaluation),1
FIHHIIGGLFSVGKHIHSLIHRRRR [DBAASP_17379],Class (dedicated toxicity dataset used for toxicity classifier evaluation),1
FKRIVQRIKDFLR [DBAASP_3393],Class (dedicated toxicity dataset used for toxicity classifier evaluation),0
FLAGLIGGLAKML [DBAASP_1978],Class (dedicated toxicity dataset used for toxicity classifier evaluation),0
FLGAIAGVAAKFLPKVFCFITKKC [DBAASP_6167],Class (dedicated toxicity dataset used for toxicity classifier evaluation),1
FLGALFKVASKLVPAAICSISKKC [DBAASP_15602],Class (dedicated toxicity dataset used for toxicity classifier evaluation),0
FLGALIKGAIHGGRFIHGMIQNHH [DBAASP_1413],Class (dedicated toxicity dataset used for toxicity classifier evaluation),0
FLGALLKIGAKVLPSVLCGIFKKC [DBAASP_14203],Class (dedicated toxicity dataset used for toxicity classifier evaluation),1
FLGLLFHGVHHVGKWIHGLIHGHH [DBAASP_1001],Class (dedicated toxicity dataset used for toxicity classifier evaluation),1
FLGSIVGALASALPSLISKIRN [DBAASP_2209],Class (dedicated toxicity dataset used for toxicity classifier evaluation),1
FLGSLFSIGSKLLPGVIKLFQRKKQ [DBAASP_17526],Class (dedicated toxicity dataset used for toxicity classifier evaluation),1
FLIGMTQGLICLITRKC [DBAASP_1477],Class (dedicated toxicity dataset used for toxicity classifier evaluation),0
FLKGIKGMLGKLF [DBAASP_9109],Class (dedicated toxicity dataset used for toxicity classifier evaluation),0
FLKGIKGMLGKLL [DBAASP_9112],Class (dedicated toxicity dataset used for toxicity classifier evaluation),0
FLKGIVGKLGKLF [DBAASP_9110],Class (dedicated toxicity dataset used for toxicity classifier evaluation),0
FLKGIVGMLGKLF [DBAASP_8203],Class (dedicated toxicity dataset used for toxicity classifier evaluation),1
FLKGIVGMLGKLL [DBAASP_9111],Class (dedicated toxicity dataset used for toxicity classifier evaluation),0
FLKGIVGMLGKLW [DBAASP_9113],Class (dedicated toxicity dataset used for toxicity classifier evaluation),1
FLKWALKVAAK [DBAASP_16466],Class (dedicated toxicity dataset used for toxicity classifier evaluation),0
